# Measurements from PubChem BioAssay AID2060503 (Molecular Pharmacology Branch, DTP, NCI, 2025).
# System: 817829-284-R-J1-PDC complex spheroids, viability
# Experiment: Anticancer human tumor 817829-284-R-J1-PDC patient-derived colon adenocarcinoma cell line growth inhibition [GQUAD]
# Conditions: for IC50: curve of first compound; for viability, T/C: stronger effect = lower value
# How it was run: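 Multi-cell-type spheroids of tumor cells with HUVEC and mesenchymal stem cells, treated with drug combinations. Concentrations descend in half-log steps from near clinical Cmax, or from 10 microM where Cmax is unknown; viability read-out.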
# [1] = second compound 0.0316 µM, first compound 0.0316 µM
# [2] = second compound 0.0316 µM, first compound 0.1 µM
# [3] = second compound 0.0316 µM, first compound 0.316 µM
# [4] = second compound 0.0316 µM, first compound 1 µM
# [5] = second compound 0.0316 µM, first compound 3.16 µM
# [6] = second compound 0.0316 µM, first compound 10 µM
# [7] = second compound 0.1 µM, first compound 0.0316 µM
# [8] = second compound 0.1 µM, first compound 0.1 µM
# [9] = second compound 0.1 µM, first compound 0.316 µM
# [10] = second compound 0.1 µM, first compound 1 µM
# [11] = second compound 0.1 µM, first compound 3.16 µM
# [12] = second compound 0.1 µM, first compound 10 µM
# [13] = second compound 0.316 µM, first compound 0.0316 µM
# [14] = second compound 0.316 µM, first compound 0.1 µM
# [15] = second compound 0.316 µM, first compound 0.316 µM
# [16] = second compound 0.316 µM, first compound 1 µM
# [17] = second compound 0.316 µM, first compound 3.16 µM
# [18] = second compound 0.316 µM, first compound 10 µM
# [19] = second compound 1 µM, first compound 0.0316 µM
# [20] = second compound 1 µM, first compound 0.1 µM
# [21] = second compound 1 µM, first compound 0.316 µM
# [22] = second compound 1 µM, first compound 1 µM
# [23] = second compound 1 µM, first compound 3.16 µM
# [24] = second compound 1 µM, first compound 10 µM
# [25] = second compound 3.16 µM, first compound 0.0316 µM
# [26] = second compound 3.16 µM, first compound 0.1 µM
# [27] = second compound 3.16 µM, first compound 0.316 µM
# [28] = second compound 3.16 µM, first compound 1 µM
# [29] = second compound 3.16 µM, first compound 3.16 µM
# [30] = second compound 3.16 µM, first compound 10 µM
# [31] = second compound 10 µM, first compound 0.0316 µM
# [32] = second compound 10 µM, first compound 0.1 µM
# [33] = second compound 10 µM, first compound 0.316 µM
# [34] = second compound 10 µM, first compound 1 µM
# [35] = second compound 10 µM, first compound 3.16 µM
# [36] = second compound 10 µM, first compound 10 µM
# 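Note: spheroids exposed to agents for 7 days before readout.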
# 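Throughout, for viability, T/C: percent viability relative to DMSO vehicle control taken as 100%.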
structure (smiles),measurement,setting,value
CC(C)n1c(=O)n(C)c2cnc3cc(F)c(-c4ccc(OCCCN5CCCCC5)nc4)cc3c21 + Cc1cnc(CNC(=O)c2c(=O)c3ccc(N4CCCN(C)CC4)nc3n3c2sc2ccccc23)cn1,IC50,second compound 0.0316 µM,< 0.0316 µM
same,IC50,second compound 0.1 µM,< 0.0316 µM
same,IC50,second compound 0.316 µM,< 0.0316 µM
same,IC50,second compound 1 µM,< 0.0316 µM
same,IC50,second compound 3.16 µM,< 0.0316 µM
same,IC50,second compound 10 µM,< 0.0316 µM
same,"viability, T/C",[1],37.7%
same,"viability, T/C",[2],32.1%
same,"viability, T/C",[3],36.5%
same,"viability, T/C",[4],25.1%
same,"viability, T/C",[5],26.6%
same,"viability, T/C",[6],12.1%
same,"viability, T/C",[7],30.4%
same,"viability, T/C",[8],27.3%
same,"viability, T/C",[9],31.3%
same,"viability, T/C",[10],23.4%
same,"viability, T/C",[11],22.9%
same,"viability, T/C",[12],14.6%
same,"viability, T/C",[13],23.7%
same,"viability, T/C",[14],28.1%
same,"viability, T/C",[15],23.1%
same,"viability, T/C",[16],21.5%
same,"viability, T/C",[17],24.4%
same,"viability, T/C",[18],9.33%
same,"viability, T/C",[19],19.7%
same,"viability, T/C",[20],21.1%
same,"viability, T/C",[21],21.9%
same,"viability, T/C",[22],23.1%
same,"viability, T/C",[23],24.2%
same,"viability, T/C",[24],8.09%
same,"viability, T/C",[25],16.6%
same,"viability, T/C",[26],18.5%
same,"viability, T/C",[27],19%
same,"viability, T/C",[28],21%
same,"viability, T/C",[29],18.8%
same,"viability, T/C",[30],7.12%
same,"viability, T/C",[31],0.15%
same,"viability, T/C",[32],0.17%
same,"viability, T/C",[33],0.18%
same,"viability, T/C",[34],0.17%
same,"viability, T/C",[35],0.18%
same,"viability, T/C",[36],0.18%
CC1COCCN1c1cc(-c2ccnn2C)c2ccnc(-c3ccn[nH]3)c2n1 (stereo unspecified) + Cc1cnc(CNC(=O)c2c(=O)c3ccc(N4CCCN(C)CC4)nc3n3c2sc2ccccc23)cn1,IC50,second compound 0.0316 µM,< 0.0316 µM
same,IC50,second compound 0.1 µM,< 0.0316 µM
same,IC50,second compound 0.316 µM,< 0.0316 µM
same,IC50,second compound 1 µM,< 0.0316 µM
same,IC50,second compound 3.16 µM,< 0.0316 µM
same,IC50,second compound 10 µM,< 0.0316 µM
same,"viability, T/C",[1],14.8%
same,"viability, T/C",[2],9.78%
same,"viability, T/C",[3],9.09%
same,"viability, T/C",[4],7.06%
same,"viability, T/C",[5],6.16%
same,"viability, T/C",[6],4.96%
same,"viability, T/C",[7],13.3%
same,"viability, T/C",[8],11.1%
same,"viability, T/C",[9],8.18%
same,"viability, T/C",[10],6.54%
same,"viability, T/C",[11],6.01%
same,"viability, T/C",[12],3.97%
same,"viability, T/C",[13],15%
same,"viability, T/C",[14],11.9%
same,"viability, T/C",[15],8.36%
same,"viability, T/C",[16],6.17%
same,"viability, T/C",[17],5.71%
same,"viability, T/C",[18],4.08%
same,"viability, T/C",[19],13.8%
same,"viability, T/C",[20],14.1%
same,"viability, T/C",[21],9.19%
same,"viability, T/C",[22],6.22%
same,"viability, T/C",[23],5.53%
same,"viability, T/C",[24],3.34%
same,"viability, T/C",[25],11.8%
same,"viability, T/C",[26],12.1%
same,"viability, T/C",[27],8.66%
same,"viability, T/C",[28],6.72%
same,"viability, T/C",[29],3.24%
same,"viability, T/C",[30],2.62%
same,"viability, T/C",[31],0.06%
same,"viability, T/C",[32],0.09%
same,"viability, T/C",[33],0.11%
same,"viability, T/C",[34],0.08%
same,"viability, T/C",[35],0.12%
same,"viability, T/C",[36],0.12%
CC1COCCN1c1cc(C2(O)CC3CCC(C2)O3)c2cnn(-c3ccn[nH]3)c2n1 (stereo unspecified) + Cc1cnc(CNC(=O)c2c(=O)c3ccc(N4CCCN(C)CC4)nc3n3c2sc2ccccc23)cn1,IC50,second compound 0.0316 µM,< 0.0316 µM
same,IC50,second compound 0.1 µM,< 0.0316 µM
same,IC50,second compound 0.316 µM,< 0.0316 µM
same,IC50,second compound 1 µM,< 0.0316 µM
same,IC50,second compound 3.16 µM,< 0.0316 µM
same,IC50,second compound 10 µM,< 0.0316 µM
same,"viability, T/C",[1],12.8%
same,"viability, T/C",[2],9.62%
same,"viability, T/C",[3],7.9%
same,"viability, T/C",[4],5.56%
same,"viability, T/C",[5],5.19%
same,"viability, T/C",[6],3.22%
same,"viability, T/C",[7],12.9%
same,"viability, T/C",[8],10.7%
same,"viability, T/C",[9],8.05%
same,"viability, T/C",[10],5.97%
same,"viability, T/C",[11],4.94%
same,"viability, T/C",[12],2.88%
same,"viability, T/C",[13],13.1%
same,"viability, T/C",[14],9.42%
same,"viability, T/C",[15],6.75%
same,"viability, T/C",[16],6.83%
same,"viability, T/C",[17],4.09%
same,"viability, T/C",[18],2.08%
same,"viability, T/C",[19],12.2%
same,"viability, T/C",[20],11.2%
same,"viability, T/C",[21],6.62%
same,"viability, T/C",[22],5.07%
same,"viability, T/C",[23],3.93%
same,"viability, T/C",[24],1.59%
same,"viability, T/C",[25],12.6%
same,"viability, T/C",[26],9.23%
same,"viability, T/C",[27],6.99%
same,"viability, T/C",[28],3.25%
same,"viability, T/C",[29],0.81%
same,"viability, T/C",[30],0.2%
same,"viability, T/C",[31],0.05%
same,"viability, T/C",[32],0.1%
same,"viability, T/C",[33],0.14%
same,"viability, T/C",[34],0.08%
same,"viability, T/C",[35],0.14%
same,"viability, T/C",[36],0.12%
